Data from patent US20260007712A1, “COMPOSITION FOR PREVENTING, AMELIORATING OR TREATING PERIODONTAL DISEASES” (NUTRACORE CO., LTD., priority 2022, published 2026).

Experiments:
Assay type in all cases: in vivo
MDA = MDA content in gingival tissue, EPD rat model; settings: EPD rats; extracts 200 mg/kg, IND 5 mg/kg, oral once daily for 10 days; FIG. 8
From the text: (§1) In this study, as part of the development of functional food ingredients derived from natural products to improve periodontitis and periodontal bone damage, three types of natural product extracts, dried rehmanniae radix, wasabi leaf, and Sancho extracts, that are well known for various physiological activities, including anti-inflammatory and antioxidant effects were compared and explored using a tooth neck ligation rat periodontal disease (experimental periodontitis; EPD) model to investigate the efficacy against periodontitis and periodontal bone loss.
(§2) Specifically, a total of 121 SPF/VAF Outbred Crl:CD [SD] male rats (OrientBio, Seungnam, Korea) were obtained, and after acclimatization for 7 days, experimental animals with a constant body weight were selected, and 10 animals per group were divided and tested in 7 groups below (normal medium control group: average 248.90±8.23 g, 236.00˜261.00 g; EPD-induced group: average 248.14±9.85 g, 219.00˜272.00 g). […]
(§3) Daily body weight was measured from 1 day before ligation, periodontal bone loss rate was measured on the final sacrifice day, some gingival tissue was extracted, changes in IL-1β, TNF-α, and MDA content were observed. The number of infiltrating inflammatory cells in the gingival tissue, periodontal bone volume (alveolar bone volume), and collagen content in the gums were measured.

[1] = test system: infiltrating inflammatory cells in gingival tissue; assay: Number of infiltrating inflammatory cells in gingival tissue, EPD rat model; settings: EPD rats; extracts 200 mg/kg, IND 5 mg/kg, oral once daily for 10 days; FIG. 5
From the text: as §1, §2, §3

TNF-α = TNF-α content in gingival tissue, EPD rat model; settings: EPD rats; extracts 200 mg/kg, IND 5 mg/kg, oral once daily for 10 days; bottom of FIG. 7
From the text: as §1, §2, §3

[2] = test system: periodontal bone loss (alveolar bone loss); assay: Periodontal bone loss rate, tooth neck ligation rat periodontal disease (EPD) model; settings: EPD rats; extracts 200 mg/kg, IND 5 mg/kg, oral once daily for 10 days from 24 h after ligation; FIG. 3
From the text: as §1, §2, §3

[3] = test system: collagen fibers in gingival tissue; assay: Collagen fiber content in gingival tissue, EPD rat model; settings: EPD rats; extracts 200 mg/kg, IND 5 mg/kg, oral once daily for 10 days; FIG. 6
From the text: as §1, §2, §3

IL-1β = IL-1β content in gingival tissue, EPD rat model; settings: EPD rats; extracts 200 mg/kg, IND 5 mg/kg, oral once daily for 10 days; top of FIG. 7
From the text: as §1, §2, §3

[4] = test system: periodontal bone mass (alveolar bone volume); assay: Periodontal bone mass (alveolar bone volume), EPD rat model; settings: EPD rats; extracts 200 mg/kg, IND 5 mg/kg, oral once daily for 10 days; FIG. 4
From the text: as §1, §2, §3

Structure (SMILES): COc1ccc2c(c1)c(CC(=O)O)c(C)n2C(=O)c1ccc(Cl)cc1 [IND, Indomethacin]
- change in MDA content in gingival tissue compared to the EPD control group (MDA): −42.44%
- change in number of infiltrating inflammatory cells in gingival tissue compared to the EPD control group [1]: −57.61%
- change in TNF-α content in gingival tissue compared to the EPD control group (TNF-α): −50.46%
- change in periodontal bone loss rate compared to the EPD control group [2]: −26.49%
- change in proportion of collagen fibers in gingival tissue compared to the EPD control group [3]: 148.65%
- change in IL-1β content in gingival tissue compared to the EPD control group (IL-1β): −54.75%
- change in periodontal bone mass compared to the EPD control group [4]: 188.14%
